# Results as given in patent US20170316147A1, “METHODS AND SYSTEMS FOR IDENTIFYING LIGAND-PROTEIN BINDING SITES” (King Abdullah University of Science and Technology, priority 2014, published 2017).
# “Also recorded” adds a separate entry of the source. No end group written: not given here.
# Columns and labels:
# hPPARγ-LBD [1] = target: T1, hPPARγ-LBD (Homo sapiens, UniProt P37231); test: Fluorescence anisotropy titrations of fluorescein-labelled coactivator/corepressor peptides with hPPARγ-LBD in presence of ligand
# T1 sequence (P37231 196-477 isoform P37231-2): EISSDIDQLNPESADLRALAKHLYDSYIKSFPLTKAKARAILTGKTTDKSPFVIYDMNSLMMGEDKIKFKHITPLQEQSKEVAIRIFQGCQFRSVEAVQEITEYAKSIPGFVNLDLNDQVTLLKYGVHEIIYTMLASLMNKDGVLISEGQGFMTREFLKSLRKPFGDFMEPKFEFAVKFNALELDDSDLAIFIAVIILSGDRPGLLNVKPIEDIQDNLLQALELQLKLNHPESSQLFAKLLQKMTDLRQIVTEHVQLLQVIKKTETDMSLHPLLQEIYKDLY
# Source text: Next, we used fluorescence anisotropy (FA) to characterize the interaction between hPPARγ-LBD and its natural partner proteins upon CoA binding. We measured the dissociation constant (Kd) between hPPARγ-LBD and fluorescein-labeled peptides derived from a coactivator protein (PGC1) and two corepressor proteins (NCoR and SMRT). […] If an increasing molar excess of the ligand has an increasing influence on the Kd of the fluorescently labeled coactivator/corepressor, then we can infer ligand binding, because the ligand disturbs binding to coactivators or corepressors.
# Binding affinities of the fluorescent peptides for hPPARγ LBD were measured in the presence or absence of ligands using a Safire2 microplate reader (TECAN). For the fluorescence-labeled peptides, excitation wavelength was set at 470 nm and emission measured at 530 nm. The reported data are the average of independent experiments and error bars correspond to standard deviations. The buffer solution for assays was 20 mM Tris-HCl pH 7.5, 150 mM NaCl, 1 mM EDTA, 5 mM dithiothreitol, and 10% (v/v) glycerol. The measurements were initiated at 40 μM of the protein, and then the sample was diluted successively by a factor of 2 with the buffer until the lowest protein concentration reached 9.7 nM. Fluorescent peptides were added to the protein samples at 4 nM, allowing establishment of the titration curve. Ligands, when added, were at final concentration of 80 μM.
# Binding affinities of the fluorescent peptides for hPPARγ LBD were measured in the presence or absence of ligands using a Safire2 microplate reader (TECAN). Fluorescent-labeled peptides were measured using an excitation wavelength of 470 nm; emission was measured at 530 nm. Data are the average of independent experiments and error bars correspond to standard deviations. The buffer solution for assays consisted of 20 mM Tris-HCl pH 7.5, 150 mM NaCl, 1 mM EDTA, 5 mM dithiothreitol, and 10% (v/v) glycerol. Measurements began at 40 μM of the protein, followed by successive two-fold sample dilutions with buffer, until reaching the lowest protein concentration (9.7 nM). Fluorescent peptides were added to the protein samples at 4 nM to allow the establishment of the titration curve. Added ligands were at a final concentration of 80 μM.
# hPPARγ-LBD [2] = target: T1, hPPARγ-LBD; test: Differential scanning fluorimetry (thermal shift) on hPPARγ-LBD; type: binding; set-up: human PPARγ (amino acids Glu196-Tyr477); made in house; details: for Tm of hPPARγ-LBD: 5 μM hPPARg
# Source text: PPARγ is a nuclear hormone receptor regulating numerous biological functions including adipogenesis and cell differentiation. Its dysregulation is involved in the onset of diabetes and obesity. The interaction of the ligand binding domain (LBD) of human PPARγ (hPPARγ-LBD) with CoA is one of our most promising predictions, because this interaction achieved a high iDTP score and statistically significant co-citation index (SI Table 3). The pocket predicted by iDTP to bind CoA overlaps with the known ligand binding site of this receptor.
# (§1) This method measures the protein unfolding based on fluorescence detection of the denatured form of the protein [59]. […] The plates were sealed with an optical sealing tape (Bio-Rad) and heated in an Mx3005P Q-PCR system (Stratagene) from 25 to 95° C. at 1° C. intervals. Fluorescence changes in the wells were monitored with a photomultiplier tube. The wavelengths for excitation and emission were 545 nm and 568 nm, respectively. The melting temperatures, Tm, were obtained by fitting the fluorescence data with a Boltzmann model using the GraphPad Prism software.
# as §1, with “Differential scanning fluorimetry (DSF or Thermofluor). This” for “This”, “measures” for “measures the”, “(Pantoliano et al., 2001).” for “[59].”, “25° C.” for “25”, “using” for “using the”
# Bcl-2 [3] = target: T2, Bcl-2 (Homo sapiens, UniProt P10415, A37T/A38E/A42E/A43T/DEL46-86/G36R/G41E/P39A/P44E/P88R/P90T/S87E/V35N/V89E); test: Differential static light scattering (aggregation temperature) of Bcl-2; type: binding
# T2 construct: made in house
# Method: We also tested direct binding of CoA to recombinant Bcl-2 (see supporting information file PredTargets). Bcl-2, the founding member of the Bcl-2 family of regulator proteins that regulate cell death, is an important anti-apoptotic protein and is classified as an oncogene. Using differential static light scattering (DSLS) we observed that the aggregation temperature Tagg for 0.5 mg/ml apo-Bcl-2 was ˜57° C. […] The predicted CoA binding pocket by iDTP was adjacent to the Bax-BH binding site and without significant overlap (FIG. 5(b)). The presence of CoA was therefore not expected to displace bound Bax-BH3. […] Thus, our in vitro binding experiments strongly supported our computational binding predictions.
# DSLS measured by the Stargazer system (Harbinger Biotechnology and Engineering Corporation, Markham, Canada) was used to assess the thermal stability of Bcl-2 in the absence or presence of CoA and control ligands. DSLS measures the specific aggregation temperature, Tagg at which a protein aggregates as a result of heat denaturing. Thus, DSLS provides the thermal stability of proteins, which is expected to vary in presence of ligands. Bcl-2 at 0.5 mg/mL was overlaid with mineral oil in a clear bottom 384-well black plate (Corning) were heated from 20 to 85° C. at 1° C./min and the light scattering was detected by a CCD camera every 0.5° C. in the absence or presence of varying concentrations of CoA, yielding the difference in aggregation temperature at a particular CoA concentration from apo Bc1-2 ΔTagg. Data were normalized and Kd values were calculated by plotting ΔTagg against the CoA concentration. Resulting data were fitted using a binding saturation single site model (GraphPad).
# Differential static light scattering (DSLS). DSLS measured by the Stargazer system (Harbinger Biotechnology and Engineering Corporation, Markham, Canada) was used to assess the thermal stability of Bcl-2 in the presence or absence of CoA and to control ligands. DSLS measures the specific aggregation temperature, Tagg, at which a protein aggregates as a result of heat denaturing. Thus, DSLS provides proteins with thermal stability, which is expected to vary in the presence of ligands. Bcl-2 at 0.5 mg/mL was overlaid with mineral oil in a clear bottom 384-well black plate (Corning), and heated from 20 to 85° C. at 1° C./min; light scattering was detected by a CCD camera every 0.5° C. in the presence or absence of varying concentrations of CoA, yielding the difference in aggregation temperature at a particular CoA concentration from apo Bcl-2 ΔTagg. Data were normalized and Kd values were calculated by plotting ΔTagg against the CoA concentration. Resulting data were fitted using a binding-saturation single-site model (GraphPad).
# Target sequence in this assay (P10415 with tags, fused parts or gaps with the stated changes): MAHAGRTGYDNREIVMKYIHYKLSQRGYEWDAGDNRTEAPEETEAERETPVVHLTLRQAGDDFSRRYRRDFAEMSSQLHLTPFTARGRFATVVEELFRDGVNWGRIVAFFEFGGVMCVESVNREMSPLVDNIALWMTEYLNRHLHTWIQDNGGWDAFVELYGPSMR
# Bcl-2 [4] = target: T2, Bcl-2; test: Fluorescence anisotropy competition: CoA against Bax-BH3 bound to Bcl-2; type: binding; details: 20 nM Bax-BH3, 400 nM Bcl-2, CoA up to 4.7 mM; listed as CoA
# Source text: Fluorescence anisotropy measurements.
# Target sequence in this assay (P10415 with tags, fused parts or gaps with the stated changes, one chain of several): as the sequence (P10415 with tags, fused parts or gaps with the stated changes) above
# Bcl-2 [5] = target: T2, Bcl-2; test: Intrinsic tryptophan fluorescence quenching binding assay
# Method: Bcl-2 tryptophans were excited at 280 nM and the emission intensity was measured at 320 nM. 10 μM Bcl-2 was incubated with various dilutions of CoA for 10 min before measurement. The fluorescence emitted was monitored using a PheraStar fluorescence plate reader in 96-well plates. Change in tryptophan fluorescence occurs due to conformational change in the protein, when it is bound to the ligand and the difference in the fluorescence intensity was recorded and analyzed. Data were normalized, and Kd values were calculated by fitting to a Binding-Saturation single site model with GraphPad.
# Intrinsic tryptophan fluorescence quenching binding assay. Bcl-2 tryptophans were excited at 280 nM and the emission intensity was measured at 320 nM. 10 μM Bcl-2 was incubated with various dilutions of CoA for 10 min before measurement. Emitted fluorescence was monitored using a PheraStar fluorescence plate reader in 96-well plates. Change in tryptophan fluorescence occurs due to conformational changes in the protein when it is bound to the ligand; differences in the fluorescence intensity were recorded and analyzed. Data were normalized and Kd values were calculated by fitting to a Binding-Saturation single-site model with GraphPad.
# Target sequence in this assay (P10415 with tags, fused parts or gaps with the stated changes): as above
# [6] = target: T3, chimeric human Bcl-2 (with the internal loop 51-91 removed and residues 35-50 replaced by residues 33-48 of … (human; mouse, UniProt P10415 1-34; Q64373 33-48; P10415 92-207); test: DSLS, aggregation temperature of 0.5 mg/mL Bcl-2 with 1 uM peptide (apo Bcl-2 56.85 ± 0.14); negative control
# T3 construct: also called recombinant Bcl-2; Bc1-2
# T3 sequence (P10415 other isoform, or with tags, fused parts or gaps mutant limits assumed): as the sequence (P10415 with tags, fused parts or gaps with the stated changes) above
# [7] = target: T3, chimeric human Bcl-2 (with the internal …); test: differential static light scattering (DSLS), aggregation temperature of 0.5 mg/ml Bcl-2
# [8] = target: T3, chimeric human Bcl-2 (with the internal …); test: fluorescence anisotropy (FA), same experiment as FIG. 5(a), rounded
# [9] = target: T3, chimeric human Bcl-2 (with the internal …); test: DSLS, aggregation temperature of 0.5 mg/mL Bcl-2 with 400 nM peptide (apo Bcl-2 56.85 ± 0.14)
# [10] = target: T3, chimeric human Bcl-2 (with the internal …); test: fluorescence anisotropy of labeled Bax-BH3 against Bcl-2 concentration, single binding site model
molecule,measurement,setting,value
CC(C)(COP(=O)(O)OP(=O)(O)OC[C@H]1O[C@@H](n2cnc3c(N)ncnc32)[C@H](O)[C@@H]1OP(=O)(O)O)[C@@H](O)C(=O)NCCC(=O)NCCS [Coenzyme A],Kd,hPPARγ-LBD [1],< 500 µM
same,nature of the ligand-hPPARγ-LBD interaction,hPPARγ-LBD [1]; inferred from effect on coactivator and corepressor binding,neutral antagonist
same,effect on affinity of hPPARγ-LBD for corepressors NCoR and SMRT,hPPARγ-LBD [1]; two to ten molar excess,lowered the affinity
same,effect on affinity of hPPARγ-LBD for the coactivator PGC1,hPPARγ-LBD [1]; two to ten molar excess (CD5577: two molar excess),lowered the affinity
same,Tm of hPPARγ-LBD,hPPARγ-LBD [2]; 35 μM ligand,46.6 °C
same,Tm of hPPARγ-LBD,hPPARγ-LBD [2]; 70 μM ligand,46.5 °C
same,Tm of hPPARγ-LBD,hPPARγ-LBD [2]; 140 μM ligand,45.5 °C
same,Tm of hPPARγ-LBD,hPPARγ-LBD [2]; 280 μM ligand,41.7 °C
same,Tm of hPPARγ-LBD,hPPARγ-LBD [2]; 1400 μM ligand,27.5 °C
same,lowering of hPPARγ-LBD Tm compared to the apo-protein,hPPARγ-LBD [2]; seven molar excess of ligand,0.8 °C
same,Tagg of Bcl-2,"Bcl-2 [3]; 0.5 mg/mL Bcl-2, 0.1 mM ligand",57.65 ± 0.19 °C
same,Tagg of Bcl-2,"Bcl-2 [3]; 0.5 mg/mL Bcl-2, 0.25 mM ligand",59.72 ± 1.011 °C
same,Tagg of Bcl-2,"Bcl-2 [3]; 0.5 mg/mL Bcl-2, 0.5 mM ligand",59.83 ± 0.21 °C
same,Tagg of Bcl-2,"Bcl-2 [3]; 0.5 mg/mL Bcl-2, 0.75 mM ligand",60.49 ± 0.46 °C
same,Tagg of Bcl-2,"Bcl-2 [3]; 0.5 mg/mL Bcl-2, 1 mM ligand",60.88 ± 0.46 °C
same,Tagg of Bcl-2,"Bcl-2 [3]; 0.5 mg/mL Bcl-2, 1.5 mM ligand",61.12 ± 0.58 °C
same,Tagg of Bcl-2,"Bcl-2 [3]; 0.5 mg/mL Bcl-2, 2 mM ligand",61.25 ± 0.66 °C
same,Tagg of Bcl-2,"Bcl-2 [3]; 0.5 mg/mL Bcl-2, 3 mM ligand",61.78 ± 0.45 °C
same,Tagg of Bcl-2 reached with increasing ligand concentrations,"Bcl-2 [3]; 0.5 mg/ml Bcl-2, increasing concentrations of CoA",up to 62 °C
same,Kd,"Bcl-2 [3]; DSLS thermal stability of Bcl-2, read-out: Kd from ΔTagg versus concentration, single binding site model",320 ± 130 µM
same,displacement of Bax-BH3 from Bcl-2 (fluorescence anisotropy/polarization),Bcl-2 [4],did not reduce the FA; also recorded: without displacing Bax-BH3; also recorded: unable to displace
same,Kd,"Bcl-2 [5]; 10 μM Bcl-2, increasing CoA concentrations, read-out: Kd from tryptophan fluorescence quenching, single binding site model",380 µM
same,Kd,"Bcl-2 [5]; summary value in discussion, read-out: Kd for recombinant Bcl-2 in vitro",~350 µM
"LSDAMETSSLRDALE [scrambled LD4 peptide, scrambled version of the Bcl-2 ligand LD4, negative control, reference compound]",effect on Tagg of Bcl-2,"Bcl-2 [3]; 0.5 mg/ml Bcl-2, 1 μM peptide (negative control)",did not alter Tagg
"QDASTKKLSECLRRIGDELDSNMELQRMIAD [Bax-BH3 peptide, reference compound]",Tagg of Bcl-2,"Bcl-2 [3]; 0.5 mg/mL Bcl-2, 400 nM ligand",67.30 ± 1.02 °C
same,Tagg of Bcl-2,"Bcl-2 [3]; 0.5 mg/mL Bcl-2, 400 nM ligand, listed as Bax-BH3",67 °C
"LSDAMETSSLRDALE (Negative control peptide, bought from Genscript; also called Scramble LD4 peptide) [scrambled LD4 peptide (LSDAMETSSLRDALE, a scrambled version of the Bcl-2 ligand LD4)]",Tagg (° C.),[6],57 ° C.
same,binding result,[7],no binding (tested: 1 µM)
"QDASTKKLSECLRRIGDELDSNMELQRMIAD (also: fluorescein label, position not given here, Bought from Genscript; also called Bax-BH3 peptide) [fluorescence-labeled peptide QDASTKKLSECLRRIGDELDSNMELQRMIAD corresponding to Bax-BH3]",Kd,[8],0.128 µM
same,Tagg (° C.),[9],67.3 ° C.
same,Kd,[10],~0.128 µM
